Measurements published in patent US20170304466A1, “AAV-Based Gene Therapy” (Arthrogen B.V., priority 2014, published 2017).
Read-outs that look alike come from different tables or passages of the source.

Tests used:
[1] = tested on: mice with CIA; type: in vivo
Experimental: In brief, the plasmid encodes the Fluc gene under the control of the CMV promoter and a human growth hormone polyadenylation signal. The transgene cassette is flanked by AAV-2 inverted terminal repeats and is packaged in capsid from AAV5.[Gao G P et al; PNAS 2002; 11854] The genome containing vector and empty AAV capsid particles were purified by combined chromatography and cesium chloride density gradient centrifugation. […] Vector titers were determined by qPCR and expressed as vector genomes/ml (vg/ml).
Intra-articular rAAV5 expression was investigated in male DBA mice (8-12 week old; Harlan Sprague Dawley, Horst, The Netherlands) in 5 animal experiments. Mice were injected with rAAV5.CMV.Fluc in both knee joints (with or without injection of ankle joints) and monitored periodically for luciferase expression (from 5 days up till 6 months). For animals without arthritis the vector was administered on day 1, in arthritic animals the vector was injected on day 17 or 24 after immunization, at the onset of disease. Animals received between 1.26e10 and 1.5e10 vg per knee joint (in a volume of 5 μl) and 0.75e10 vg per ankle joint (in a volume of 2.5 μl). Empty capsids were co-administered with the genome containing particles in several groups in a 5:1 or 20:1 ratio (ratio expressed as empty capsids to genome containing vectors). Groups consisted of 5 to 18 animals.
Two days prior to vector administration, triamcinolone was administered intra-muscularly (i.m.), similar to the use in RA patients. […] Taking into account the faster metabolic rate in mice (factor 12.5), a dose of 5 mg/kg bodyweight was used, administered in a volume of 50 μl. Control groups received an i.m. injection with 50 μl NaCl. […]
(§1) Luciferase expression was measured at different time points after vector administration, from day 3 up till 6 months in different experiments. […] Image processing and signal intensity quantification and analysis were performed using M3 Vision (Biospace Lab). […] The number of photons emitted per second per square centimetre per steradian was calculated as a measure of luciferase activity.
Luminescence over time was investigated using generalized estimating equations (GEE) to allow for longitudinal analysis (including all available longitudinal data and allowing unequal numbers of repeated measurements) (Twisk (2004) Eur. J. Epidemiol. 19(8):769-776). All other statistics were analyzed using Graphpad Prism (Ja Jolla, Calif., USA). […]

[2] = tested on: mice with CIA; assay: Arthritis activity clinical score in CIA mice; type: in vivo
Experimental: Collagen induced arthritis (CIA) was induced by means of an intradermal injection of 100 μl collagen type II (2 mg/ml), diluted 1:1 in CFA (mineral oil and heat-killed M. Tuberculosis 2 mg/ml) (Chondrex Inc., Redmond, Wash., USA). On day 21 a booster injection was administered intraperitoneally containing 100 μg collagen type II dissolved in 100 μl NaCl.
Arthritis activity was scored 3-weekly from day 18 on with a semi-quantitative scoring system, each mouse paw was analyzed separately (0—normal; 1—swelling and/or erythema of 1 joint; 2—swelling in multiple joints; 3—swelling of all joints; 4—swelling of whole paw and at least one of the following symptoms: ankylosis, loss of function).

[3] = tested on: macrophages (F4/80+, CD68+); assay: FLOW cytometry of macrophages in spleen and synovium of arthritic mice; type: in vivo; details: 48 hrs after triamcinolone 5 mg/kg i.m.
Experimental: Macrophages in spleen and synovium were analyzed by FLOW cytometry. Briefly, synovial cells were extracted by scraping cells from the joint followed by digestion with Liberase/DNase for 30 min at 37° C. Cells were then washed (PBS/EDTA) and passed through a cell strainer. Synovial cells were centrifuged (1400 rpm, 5 min, 4° C.) and resuspended in FACS buffer (PBS+1% BSA). Due to the low number of cells in the synovium, all animals from each group were pooled. Spleen cells were isolated by mechanical disruption and flushing cells through a cell strainer. Red blood cells were lysed by addition of RBC lysis buffer (Life Technologies), followed by 10 min incubation on ice. Cells were centrifuged and resuspended in FACS buffer. Cells (pooled synovium or splenocytes (1e6 cells) were blocked with 5% normal mouse serum (Sanquin) and stained with F4/80-APC and CD68-FITC labeled antibodies (BD Biosciences). Data was acquired on a BD Canto2 and was analyzed using FlowJo software (FLOWJO LLC, Ashland Oreg.)
To further investigate the mechanism of action behind the effect of triamcinolone on transgene expression, an ex vivo analysis was carried out on synovial tissue and splenocytes to assess the effect on the numbers and activity of macrophages and other cell types. […]

[4] = tested on: spleen; assay: Spleen size after triamcinolone in arthritic mice; type: in vivo
Experimental: FIG. 5: Effect of triamcinolone on spleen size and cell populations in different tissues. Arthritis was induced in several groups (n=5 per group), triamcinolone (5 mg/kg) or saline as control was administered intramuscularly on day 22 (2 days before vector administration). […]
Immunization, intra-articular injections and in vivo imaging were performed under isoflurane anaesthesia (3% isoflurane and oxygen). At the end of the experiments, animals were sacrificed by cardiac puncture under isoflurane anaesthesia, followed by cervical dislocation, after which hind paws, blood, lymph nodes and spleen were collected. The studies were reviewed and approved by the animal care and use committee of the University of Amsterdam (Amsterdam, The Netherlands; Permit Numbers: ART 102881, ART 102656, ART 102793, ART 102948, and ART 103021) and carried out in strict accordance with the recommendations in the Dutch Law on Animal Welfare (Wet op Dierproeven). Animals were maintained under pathogen-free conditions in the animal facility of the University of Amsterdam.

[5] = tested on: healthy mice; assay: Intra-articular rAAV5 luciferase expression, in vivo imaging in healthy mice; details: AAV5-CMV-Fluc 1.26e10 vg/joint, compared with vector alone, up to week 8
Experimental: (§2) In brief, the plasmid encodes the Fluc gene under the control of the CMV promoter and a human growth hormone polyadenylation signal. […] The genome containing vector and empty AAV capsid particles were purified by combined chromatography and cesium chloride density gradient centrifugation. […] Vector titers were determined by qPCR and expressed as vector genomes/ml (vg/ml).
Intra-articular rAAV5 expression was investigated in male DBA mice (8-12 week old; Harlan Sprague Dawley, Horst, The Netherlands) in 5 animal experiments. Mice were injected with rAAV5.CMV.Fluc in both knee joints (with or without injection of ankle joints) and monitored periodically for luciferase expression (from 5 days up till 6 months). […] Empty capsids were co-administered with the genome containing particles in several groups in a 5:1 or 20:1 ratio (ratio expressed as empty capsids to genome containing vectors). […]
as §1

[6] = tested on: air pouch membrane; assay: Luciferase expression in air pouch synovial inflammation (APSI) model; type: in vivo, mice; details: triamcinolone 5 mg/kg i.m. on d9, vector 3.16e11 vg on d11; assay d30
Experimental: Air pouches were formed as previously described (O'Boyle et al. (2009) FASEB J. 23 (11): 3906-3916). Briefly, 3 mls of air was injected subcutaneously into the back of each animal. The air pouches were kept inflated by re-injection of air as necessary. rAAV5.CMV.Fluc vector (3.16e11 vg) was administered into the pouch in a volume of 1 ml on d0, d11, or d18 post air pouch formation. For triamcinolone treated animals, triamcinolone was administered (5 mg/kg) by i.m. injection 2 days prior to vector administration on d11. On d30, mice were sacrificed and air pouch membrane was removed and snap frozen. Frozen air pouch tissue was homogenized in passive lysis buffer (Promega) and luciferase was measured by standard luciferase assay (Promega).
The air pouch synovial inflammation (APSI) model was initially developed as a way to model human synovium in a mouse. It involves the injection of air under the skin on the back of a mouse. After 6-7 days, a lining membrane will form around this air pouch. This lining is very similar to the synovial lining that forms around the joint cavity, consisting primarily of fibroblast like cells and macrophages. […] We hypothesized that perhaps the macrophages lining the air pouch membrane were inhibiting the transduction of the vector (similar to what we have observed in intra-articular injected vector). […]

[7] = tested on: healthy mice; assay: Intra-articular rAAV2 luciferase expression, in vivo imaging in healthy mice; details: AAV2-CMV-Fluc 1.26e10 vg/joint, compared with vector alone, up to week 4
Experimental: as §2
Luciferase expression was measured at different time points after vector administration, from day 3 up till 6 months in different experiments. D-luciferin potassium-salt substrate (Caliper Life Sciences, Hopkinton, Mass., USA) was injected intraperitoneally (150 mg/kg of body weight, in a volume of approximately 200 μl). Photon counts were acquired 10 minutes after substrate administration for 5 minutes using a cooled charge-coupled device (CCD) camera system (Photon Imager, Biospace Lab, Paris, France). […] Image processing and signal intensity quantification and analysis were performed using M3 Vision (Biospace Lab). […] The number of photons emitted per second per square centimetre per steradian was calculated as a measure of luciferase activity.
To test this hypothesis, we performed an experiment were we evaluated if triamcinolone and empty capsid could enhance gene expression from a serotype that is very different from AAV5, that being AAV2. […] Luciferase expression was monitored by live animal IVIS imaging.

C[C@]12C=CC(=O)C=C1CC[C@H]1[C@@H]3C[C@@H](O)[C@](O)(C(=O)CO)[C@@]3(C)C[C@H](O)[C@@]12F [triamcinolone]
rAAV5.CMV.Fluc expression (luminescence) ([1]; agent given 48 hours before i.a. vector (triamcinolone 5 mg/kg i.m.; liposomal clodronate 5 μl/g i.v.), over 4 weeks): improved rAAV5.CMV.Fluc expression | luciferase expression (generalized estimating equations), compound added separately ([1]; followed 6 months): trend towards increased expression (not significant) | gene expression (luciferase) ([1]; triamcinolone 5 mg/kg locally (i.a.) 2 days prior to i.a. vector + empty capsids 5:1): enhancement of gene expression | gene expression (luciferase) ([1]; triamcinolone 5 mg/kg systemically (i.m.) 2 days prior to i.a. vector + empty capsids 5:1): enhancement of gene expression | arthritis activity (clinical score) ([2]; Example 2, up to 4 weeks): trend towards reduced arthritis activity | arthritis activity (clinical score) ([2]; Example 3, up till week 4): arthritis activity was lower | relative percentage of macrophages (CD68+, F4-80+) in the spleen ([3]; compared with saline): remained similar | percentage of macrophages in the synovium ([3]; pooled animals per group): decreased | spleen weight ([4]; 3 days after triamcinolone/saline administration): significantly reduced | decrease of absolute volume of spleen ([4]; after triamcinolone 5 mg/kg i.m., at d25, p=0.0011): 4 fold | intra-articular AAV5 gene expression (luciferase, IVIS) [5]: increased gene expression | luciferase expression in air pouch membrane [6]: luciferase expression was only observed | intra-articular AAV2 gene expression (luciferase, IVIS) [7]: increased gene expression
